Test results published in patent publication US20260256747A1, “ARYL-TRIAZOLYL AND RELATED GPR84 ANTAGONISTS AND USES THEREOF” (Liminal BioSciences Limited, priority 2022, published 2026).
pIC50: −log10 of the molar value.

Target: T1, human GPR84 receptor (Homo sapiens, UniProt Q9NQS5)
T1 construct: host or cells: HEK293 cells, transient transfection
Assay: Gαi biosensor BRET assay in HEK293 cells transfected with GPR84, stimulated with the GPR84 agonist ZQ-16
Format: cell-based
Details: 200 nmol/L ZQ-16; for inhibition at 10 µM / inhibition at 2 µM: HEK293, single concentration; for inhibition at 10 µM: concentration class F = 10 μM; for inhibition at 2 µM: concentration class A = 2 μM
Excerpt: Background—The following assays can be used for determination of GPR84 activation in living HEK293 cells. The Gαi BRET biosensor (Gagnon et al., 2018; Gales et al., 2006. Nat Struct Mol Biol. 13, 778-86; Saulieres et al., 2012. Nat Chem Biol. 8, 622-30) allows to directly monitor GPR84-mediated activation of Gαi. The Gαi biosensor consists of a Rluc8-tagged Gαi2 subunit, a GFP10-tagged Gγ2 subunit, and an untagged GB1. Agonist stimulation and GPR84 activation triggers a physical separation between the RLuc8-Gαi donor and the GFP10-Gγ2 acceptor, resulting in a decrease in BRET signal whose amplitude is correlated to ligand efficacy (Gales et al., 2006). Moreover, signaling functions of GPCRs are tightly regulated by endocytosis, the targeting of receptors to endosomes and their sorting to lysosomes or recycling to the plasma membrane. The early endosomes (EEs) trafficking assay (Namkung et al., 2016. Nat Commun. 7, 12178) uses Rluc8-tagged GPR84 and Renilla GFP (rGFP) attached to the FYVE domain from human endofin/zinc finger FYVE domain-containing protein 16, which binds phosphatidylinositol 3-phosphate in EEs. Agonist stimulation of GPR84-Rluc8 leads to trafficking of the receptor to EEs, and ensuing increase of the donor concentration relative to the rGFP-FYVE acceptor anchored in the same cellular compartment, and thus results in an increase in BRET signal.
Plasmids—The cDNA clones for human GPR84 receptor, human Gαi2, Gβ1, and Gγ2 were obtained from the cDNA Resource Center (www.cdna.org). GFP10 (F64L, S147P, S202F and H231L variant of Aequorea victoria Green Fluorescent Protein) gBlocks gene fragments (Integrated DNA Technologies, IA) and linker were inserted in frame at the N-terminus of human Gγ2. Rluc8 (A^55T, Cl24A, S130A, K136R, A^143M, M185V, M253L, and S287L variant of the Renilla reniformis luciferase) gBlocks gene fragment was inserted with linkers in frame in between residues 91 and 92 of Gαi2 or at the C-terminus of GPR84. The FYVE domain from human endofin (residues Q739 to K806) attached in frame at the C terminus of a humanized Renilla GFP (rGFP), were synthesized as gBlocks gene fragments.
Bioluminescence Resonance Energy Transfer (BRET) Measurement-HEK293 cells were transfected with GPR84-Rluc8 and rGFP-FYVE for the EEs trafficking biosensor or with GPR84, Gαi2-Rluc8, GFP10-Gγ2, and Gβ1 for the Gαi biosensor. The following day, transiently transfected cells were seeded in 96-well white clear bottom microplates coated with poly-D-lysine and left in culture for 24 hours. Cells were washed once with Tyrode's buffer (140 mmol/L NaCl, 1 mmol/L CaCl2, 2.7 mmol/L KCl, 0.49 mmol/L MgCl2, 0.37 mmol/L NaH2PO4, 5.6 mmol/L glucose, 12 mmol/L NaHCO3, and 25 mmol/L HEPES, pH 7.5) before performing assays in Tyrode's buffer. Test compounds were incubated with cells for 5 (Gai) or 15 (EEs) minutes at 37° C. before addition of 200 nmol/L of the GPR84 agonist ZQ-16 (2-(Hexylthio)-6-hydroxy-4 (3H)-pyrimidinone) for 5 minutes at room temperature (Gai) or 30 minutes at 37° C. (EEs). The Rluc8 substrate coelenterazine 400A (Prolume, Lakeside, AZ) was added at a final concentration of 5 μmol/L and BRET readings were collected using an Infinite M1000 microplate reader (Tecan, Morrisville, NC). BRET2 readings between Rluc8 and GFP10 or rGFP were collected by sequential integration of the signals detected in the 370 to 450 nm (Rluc8) and 510 to 540 nm (GFP10, rGFP) windows. The BRET signal was calculated as the ratio of light emitted by acceptor (GFP10, rGFP) over the light emitted by donor (Rluc8). The values were corrected to net BRET by subtracting the background BRET signal obtained in cells transfected with Rluc8 constructs alone. Ligand-promoted net BRET values were calculated by subtracting vehicle-induced net BRET from ligand-induced net BRET.

T1 sequence (Q9NQS5 whole entry): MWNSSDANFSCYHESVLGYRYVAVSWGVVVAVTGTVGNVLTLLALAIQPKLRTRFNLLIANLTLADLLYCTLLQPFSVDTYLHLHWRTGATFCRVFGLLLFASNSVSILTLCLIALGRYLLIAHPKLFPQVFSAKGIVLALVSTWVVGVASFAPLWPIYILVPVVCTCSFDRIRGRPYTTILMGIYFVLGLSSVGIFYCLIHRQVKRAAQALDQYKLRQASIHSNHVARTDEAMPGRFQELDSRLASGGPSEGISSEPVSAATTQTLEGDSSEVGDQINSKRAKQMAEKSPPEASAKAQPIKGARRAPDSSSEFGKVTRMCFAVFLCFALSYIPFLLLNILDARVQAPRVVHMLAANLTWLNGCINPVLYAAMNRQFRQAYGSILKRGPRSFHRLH

For `CN(C)c1cc(N2CC3(COC3)C2)ccc1-c1cn(CC2OCC(C)(C)CO2)cn1` [Compound I-45, 2-(1-((5,5-dimethyl-1,3-dioxan-2-yl)methyl)-1H-imidazol-4-yl)-N,N-dimethyl-5-(2-oxa-6-azaspiro[3.3]heptan-6-yl)aniline], the pIC50 was 5.52 to 6.00 and the inhibition at 10 µM was greater than 75%.

`COc1ccc(C#Cc2cnn(CC3OCC(C)(C)CO3)n2)cc1` [Compound I-46] was tested, and the inhibition at 10 µM was no more than 25%.

Molecule `CN(C)C(=O)Cn1cnc(-c2ccc(N3CC(C)(CO)C3)cc2N(C)C)c1` [Compound I-47] has an inhibition at 10 µM of 50 to 75%.

In the case of `Cc1cc(N2CCN(C(C)c3ccccn3)CC2)ccc1-c1cn(CC2OCC3(CC3)CO2)cn1` (centres unmarked) [Compound I-48], the pIC50 was no less than 6.52 and the inhibition at 10 µM was greater than 75%.

`CC1(C)COC(Cn2cc(-c3ncc(C(F)(F)F)cc3OC3CC3)nn2)OC1` [Compound I-49] showed an inhibition at 2 µM of 50 to 75%.

Molecule `[2H]C([2H])([2H])N(c1cc(N2CC(C)(CO)C2)ccc1-c1cn(CC2OCC(C)(C)CO2)nn1)C([2H])([2H])[2H]` [Compound I-50] has a pIC50 of 6.00 to 6.52.

With `CN(C)C(=O)Cn1cnc(-c2ncc(C#CC3CC3)cc2OC2CC2)c1` [Compound I-51] the inhibition at 10 µM was greater than 75%.

With `CN(C)c1cc(N2CC(C)(CO)C2)c(F)cc1-c1cn(CC2OCC3(CC3)CO2)cn1` [Compound I-52] the pIC50 was no less than 6.52 and the inhibition at 10 µM was greater than 75%.

Molecule `C(#CC1CC1)c1cnc(-c2cncn2C[C@H]2CCCCO2)c(OC2CC2)c1` [Compound I-53] has an inhibition at 10 µM of no more than 25%.

Molecule `C(#CC1CC1)c1cnc(-c2cn(C[C@H]3CCCCO3)cn2)c(OC2CC2)c1` [Compound I-54] has a pIC50 of no less than 6.52 and an inhibition at 2 µM greater than 75%.

`[2H]C([2H])([2H])N(c1cc(N2CC(C)(CO)C2)ccc1-c1cn(CC2OCC3(CC3)CO2)nn1)C([2H])([2H])[2H]` [Compound I-55] gave a pIC50 of 6.00 to 6.52 and an inhibition at 10 µM greater than 75%.

`CCc1cc(N2CCN(Cc3ccccn3)CC2)ccc1-c1cn(CC2OCC3(CC3)CO2)cn1` [Compound I-56] gave a pIC50 of no less than 6.52 and an inhibition at 10 µM greater than 75%.

`O=C(NC1CC1)c1cnc(-c2cn(CC3OCC4(CC4)CO3)nn2)c(OC2CC2)c1` [Compound I-57] gave an inhibition at 10 µM of 25 to 50%.

`CC1(C)COC(Cn2cc(Cc3cc(C#CC4CC4)ccc3C(F)(F)F)nn2)OC1` [Compound I-58] gave an inhibition at 10 µM greater than 75%.

`CN(C(=O)c1cnc(-c2cn(CC3OCC4(CC4)CO3)nn2)c(OC2CC2)c1)C1CC1` [Compound I-59, 6-(1-((5,7-dioxaspiro[2.5]octan-6-yl)methyl)-1H-1,2,3-triazol-4-yl)-5-cyclopropoxy-N-cyclopropyl-N-methylnicotinamide] gave an inhibition at 10 µM of no more than 25%.

`CN(C)C(=O)c1cnc(-c2cn(CC3OCC4(CC4)CO3)nn2)c(OC2CC2)c1` [Compound I-61] showed an inhibition at 10 µM of 25 to 50%.

With `Cc1cc(N2CCN(Cc3ccccn3)CC2)ccc1-c1cn(CC(=O)N(C)C)cn1` [Compound I-62] the inhibition at 10 µM was 25 to 50%.

For `O=C(O)Cn1cc(-c2ncc(C#CC3CC3)cc2OC2CC2)nn1` [Compound I-63], the inhibition at 10 µM was no more than 25%.

Work on `O=C(Cn1cc(-c2ncc(C#CC3CC3)cc2OC2CC2)nn1)N1CCCC1` [Compound I-64] yielded a pIC50 of 6.00 to 6.52 and an inhibition at 10 µM greater than 75%.

`O=C1OC(c2ccc(C#CC3CC3)cc2)CN1CC1CCCCO1` (centres unmarked) [Compound I-65] was tested, and the inhibition at 10 µM was 25 to 50%.

`CNC(=O)c1cnc(-c2cn(CC3OCC4(CC4)CO3)nn2)c(OC2CC2)c1` [Compound I-66] showed an inhibition at 10 µM of 50 to 75%.

In the case of `CNC(=O)Cn1cc(-c2ncc(C#CC3CC3)cc2OC2CC2)nn1` [Compound I-67], the inhibition at 10 µM was 25 to 50%.

`C(#CC1CC1)c1cnc(-c2cn(Cc3cc4ccccc4[nH]3)nn2)c(OC2CC2)c1` [Compound I-70] was tested, and the inhibition at 10 µM was no more than 25%.

`CN(C)C(=O)COc1cnc(-c2cn(CC(=O)N(C)C)nn2)c(OC2CC2)c1` [Compound I-71] showed an inhibition at 10 µM of no more than 25%.

Work on `CN(C)C(=O)COc1cnc(-c2cn(CC3OCC4(CC4)CO3)nn2)c(OC2CC2)c1` [Compound I-72] yielded an inhibition at 10 µM of 25 to 50%.

For `CN(C)C(=O)CNc1cnc(-c2cn(CC3OCC4(CC4)CO3)nn2)c(OC2CC2)c1` [Compound I-73], the inhibition at 10 µM was greater than 75%.

For `Cc1ccc(C#CC2CC2)cc1C(F)(F)c1cn(CC2CCCCO2)nn1` (centres unmarked) [Compound I-99], the inhibition at 2 µM was 50 to 75%.

In the case of `Cc1cc(C#CCN2CC(C)(C)C2)cnc1-c1nnn(CC2OCC(C)(C)CO2)n1` [Compound I-111], the pIC50 was 5.52 to 6.00 and the inhibition at 10 µM was greater than 75%.

Work on `CC1(C)CN(CC#Cc2cnc(-c3cn(CC4OCC5(CC5)CO4)nn3)c(CC3CC3)c2)C1` [Compound I-118] yielded a pIC50 of no less than 6.52 and an inhibition at 2 µM greater than 75%.

`CC1(C)COC(Cn2cc(Cc3cc(C#CC4CC4)ccc3Cl)nn2)OC1` [Compound I-136] showed a pIC50 of 5.52 to 6.00 and an inhibition at 10 µM greater than 75%.

`CN(C)c1cc(N2CCN(Cc3ccccn3)CC2)ccc1-c1cn(CC2OCC(C)(C)CO2)cn1` [Compound I-137] was tested, and the inhibition at 10 µM was no more than 25%.

With `Cc1cc(N2CCN(Cc3ccccn3)CC2)ccc1-c1cn(CC2OCC3(CC3)CO2)cn1` [Compound I-139] the inhibition at 10 µM was greater than 75%.

`CC1(C)COC(Cn2cc(-c3ncc(C#CCN4CC(C)(CO)C4)cc3OC3CC3)nn2)OC1` [Compound I-143] showed an inhibition at 2 µM greater than 75%.

With `CC1(CO)CN(c2ccc(-c3cn(CC4OCC5(CCC5)O4)nn3)c(CC(F)(F)F)c2)C1` (centres unmarked) [Compound I-144] the inhibition at 10 µM was greater than 75%.

`CCN(CC)c1cc(N2CC(C)(CO)C2)ccc1-c1cn(CC2OCC3(CC3)CO2)nn1` [Compound I-147] gave an inhibition at 10 µM greater than 75%.

Work on `CN(c1ccc(C#CC2CC2)cc1)c1cn(CC2OCC(C)(C)CO2)nn1` [Compound I-149] yielded an inhibition at 10 µM of no more than 25%.

Work on `CN(c1cn(CC2OCC(C)(C)CO2)nn1)c1cc(C#N)ccc1Cl` [Compound I-159] yielded an inhibition at 10 µM of 25 to 50%.

`CN(c1cccc(C#N)c1)c1cn(CC2OCC(C)(C)CO2)nn1` [Compound I-160] was tested, and the inhibition at 10 µM was 25 to 50%.

`NC(=O)c1cnc(-c2cn(CC3OCC4(CC4)CO3)nn2)c(OC2CC2)c1` [Compound I-204] was tested, and the inhibition at 10 µM was 50 to 75%.

`c1nc(-c2cn(CC3OCC4(CC4)CO3)nn2)c(OC2CC2)cc1-c1nnn[nH]1` [Compound I-205] gave a pIC50 of no less than 6.52 and an inhibition at 2 µM greater than 75%.

Molecule `[2H]C([2H])([2H])C1(C([2H])([2H])[2H])COC(Cn2cc(-c3ccc(N4CC(C)(CO)C4)cc3N(C)C)nn2)OC1` [Compound I-206] has an inhibition at 10 µM of no more than 25%.

`c1ccc(CN2CCN(c3cnc(-c4cn(CC5OCC6(CC6)CO5)cn4)c(OC4CC4)c3)CC2)nc1` [Compound I-211] gave an inhibition at 10 µM of 25 to 50%.

For `Clc1cc(N2CCN(Cc3ccccn3)CC2)cnc1-c1cn(CC2OCC3(CC3)CO2)cn1` [Compound I-212], the inhibition at 10 µM was 50 to 75%.

`CN(C)C(=O)CCn1cc(-c2ncc(C#CC3CC3)cc2OC2CC2)nn1` [Compound I-213] showed an inhibition at 10 µM of 25 to 50%.

For `Clc1cc(N2CCN(Cc3ccccn3)CC2)cnc1-c1cncn1CC1OCC2(CC2)CO1` [Compound I-214], the inhibition at 10 µM was 50 to 75%.

With `Clc1cc(N2CCN(Cc3ccccn3)CC2)cnc1-c1c[nH]cn1` [Compound I-215] the inhibition at 10 µM was no more than 25%.

With `CN(C)C(=O)Cn1cc(-c2ncc(C#CC3CC3)cc2OC2CC2)cn1` [Compound I-216] the inhibition at 10 µM was no more than 25%.

Molecule `O=C(Cn1cc(-c2ncc(C#CC3CC3)cc2OC2CC2)cn1)N1CCCC1` [Compound I-217] has an inhibition at 10 µM of 25 to 50%.
